System: rabbit skeletal myofibrils (approximately 90% fast fibers)
Test: Activation of fast skeletal myofibrils (PUMA coupled-enzyme ATPase assay)
Assay type: biochemical
Conditions: concentration at which the compound increased the enzymatic activity by 40%; calcium at pCa25; PM12 buffer pH 6.8
Description: Preparation of fast skeletal myofibrils: Rabbit skeletal myofibrils were prepared based upon the method of Herrmann et al. (Biochem. 32 (28): 7255-7263 (1993). Myofibrils were prepared from rabbit psoas muscle purchased from Pel-Freez Biologicals (Arkansas) within 2 days of ordering, stored on ice. Minced muscle was homogenized in 10 volumes of ice-cold “standard” buffer (50 mM Tris, pH 7.4, 0.1 M KOAc, 5 mM KCl, 2 mM dithiothreitol (DTT), 0.2 mM phenylmethylsulfonyl fluoride (PMSF), 10 μM leupeptin, 5 μM pepstatin, and 0.5 mM sodium azide) containing 5 mM ethylenediaminetetraacetic acid (EDTA) and 0.5% Triton X-100 using an Omni-Macro homogenizer. Myofibrils were recovered by low speed centrifugation (3000 rpm for 10 minutes) and washed 2 times in the Triton X-100 containing buffer to ensure removal of cellular membrane. Following the Triton washes, myofibrils were washed 3 times in “standard” buffer containing 2 mM magnesium acetate. A final wash in assay buffer (12 mM piperazine-1,4-bis(2-ethanesulfonic acid) (PIPES), pH 6.8, 60 mM KCl, 1 mM DTT) was performed and brought to 10% sucrose for flash freezing in liquid nitrogen and storage at −80° C.
Activation of Fast Skeletal Myofibrils: Fast fiber activators were identified by measuring the enzymatic activity of muscle myofibril preparations using the proprietary PUMA (trademark) (see, e.g., U.S. Pat. Nos. 6,410,254, 6,743,599, 7,202,051, and 7,378,254) assay system. Myofibril preparations consisted of rabbit skeletal muscle (approximately 90% fast fibers) that had been mechanically homogenized and washed with a detergent (Triton X-100) to remove cellular membranes. This preparation retained all of the sarcomeric components in a native conformation and the enzymatic activity was still regulated by calcium. Compounds were tested using a myofibril suspension and a level of calcium sufficient to increase enzymatic activity of the myofibrils to 25% of their maximal rate (termed pCa25). Enzymatic activity was tracked via a pyruvate kinase and lactate dehydrogenase-coupled enzyme system. This assay regenerates myosin-produced ADP into ATP by oxidizing NADH, producing an absorbance change at 340 nm. The buffering system was 12 mM PIPES, 2 mM MgCl2, 1 mM DTT at pH 6.8 (PM12 buffer). […] In Table 3, “Example Compound” refers to the compound labeled with the same number in Table 2.

Row | AC1.4 | Compound
1 | 2.97 µM | CCC[C@H]1C(=O)Nc2ccccc2N1C(=O)c1cncc(F)c1 [Compound 18, (S)-4-(5-fluoronicotinoyl)-3-propyl-3,4-dihydroquinoxalin-2(1H)-one]
2 | 1.46 µM | CCC[C@H]1C(=O)Nc2ccccc2N1C(=O)CCc1ccccc1 [Compound 19, (S)-4-(3-phenylpropanoyl)-3-propyl-3,4-dihydroquinoxalin-2(1H)-one]
3 | 1.52 µM | CCC[C@H]1C(=O)Nc2ccccc2N1C(=O)c1cncc(Cl)c1 [Compound 20, (S)-4-(5-chloronicotinoyl)-3-propyl-3,4-dihydroquinoxalin-2(1H)-one]
4 | 0.07 µM | CCC[C@H]1C(=O)Nc2ccccc2N1C(=O)c1ccc(F)c(F)c1 [Compound 21, (S)-4-(3,4-difluorobenzoyl)-3-propyl-3,4-dihydroquinoxalin-2(1H)-one]
5 | 2.76 µM | CCC[C@H]1C(=O)Nc2ccccc2N1C(=O)c1ccc(NC(C)=O)nc1 [Compound 22, (S)-N-(5-(3-oxo-2-propyl-1,2,3,4-tetrahydroquinoxaline-1-carbonyl)pyridin-2-yl)acetamide]
6 | 1.33 µM | CCC[C@H]1C(=O)Nc2ccccc2N1C(=O)c1ccc(-n2cccc2)nc1 [Compound 23, (S)-4-(6-(1H-pyrrol-1-yl)nicotinoyl)-3-propyl-3,4-dihydroquinoxalin-2(1H)-one]
7 | 0.4 µM | CCC[C@H]1C(=O)Nc2ccccc2N1C(=O)c1ccc(OC(F)F)nc1 [Compound 24, (S)-4-(6-(difluoromethoxy)nicotinoyl)-3-propyl-3,4-dihydroquinoxalin-2(1H)-one]
8 | 2.34 µM | CCC[C@H]1C(=O)Nc2ccccc2N1C(=O)c1ccc(OC(F)(F)F)nc1 [Compound 25, (S)-3-propyl-4-(6-(trifluoromethoxy)nicotinoyl)-3,4-dihydroquinoxalin-2(1H)-one]
9 | 0.56 µM | CCC[C@H]1C(=O)Nc2ccccc2N1C(=O)c1cnc2[nH]ccc2c1 [Compound 26, (S)-3-propyl-4-(1H-pyrrolo[2,3-b]pyridine-5-carbonyl)-3,4-dihydroquinoxalin-2(1H)-one]
10 | 0.76 µM | CCC[C@H]1C(=O)Nc2ccccc2N1C(=O)c1ccc(N)nc1 [Compound 27, (S)-4-(6-aminonicotinoyl)-3-propyl-3,4-dihydroquinoxalin-2(1H)-one]
11 | 1.42 µM | CCC[C@H]1C(=O)Nc2ccccc2N1C(=O)c1ccc(N(C)C)nc1 [Compound 28, (S)-4-(6-(dimethylamino)nicotinoyl)-3-propyl-3,4-dihydroquinoxalin-2(1H)-one]
12 | 2.7 µM | CCC[C@H]1C(=O)Nc2ccccc2N1C(=O)c1ccc(N2CCCCC2)nc1 [Compound 29, (S)-4-(6-(piperidin-1-yl)nicotinoyl)-3-propyl-3,4-dihydroquinoxalin-2(1H)-one]
13 | 0.42 µM | CCC[C@H]1C(=O)Nc2ccccc2N1C(=O)c1cnn(CC)c1 [Compound 30, (S)-4-(1-ethyl-1H-pyrazole-4-carbonyl)-3-propyl-3,4-dihydroquinoxalin-2(1H)-one]
14 | 0.41 µM | CCC[C@H]1C(=O)Nc2ccccc2N1C(=O)c1cnn(CC2CC2)c1 [Compound 31, (S)-4-(1-(cyclopropylmethyl)-1H-pyrazole-4-carbonyl)-3-propyl-3,4-dihydroquinoxalin-2(1H)-one]
15 | 0.71 µM | CCC[C@H]1C(=O)Nc2ccccc2N1C(=O)c1cnn(C2CCC2)c1 [Compound 32, (S)-4-(1-cyclobutyl-1H-pyrazole-4-carbonyl)-3-propyl-3,4-dihydroquinoxalin-2(1H)-one]
16 | 0.95 µM | CCC[C@H]1C(=O)Nc2ccccc2N1C(=O)c1ccc(N(C)CC)nc1 [Compound 33, (S)-4-(6-(ethyl(methyl)amino)nicotinoyl)-3-propyl-3,4-dihydroquinoxalin-2(1H)-one]
17 | 2.59 µM | CCC[C@H]1C(=O)Nc2ccccc2N1C(=O)c1ccc(NCC(F)(F)F)nc1 [Compound 34, (S)-3-propyl-4-(6-((2,2,2-trifluoroethyl)amino)nicotinoyl)-3,4-dihydroquinoxalin-2(1H)-one]
18 | 1.32 µM | CCC[C@H]1C(=O)Nc2ccccc2N1C(=O)c1ccc(N2CCCCCC2)nc1 [Compound 35, (S)-4-(6-(azepan-1-yl)nicotinoyl)-3-propyl-3,4-dihydroquinoxalin-2(1H)-one]
19 | 0.65 µM | CCC[C@H]1C(=O)Nc2ccccc2N1C(=O)c1ccc(NCc2ccccc2)nc1 [Compound 36, (S)-4-(6-(benzylamino)nicotinoyl)-3-propyl-3,4-dihydroquinoxalin-2(1H)-one]
20 | 0.58 µM | CCC[C@H]1C(=O)Nc2ccccc2N1C(=O)c1ccc(N(C)C2CC2)nc1 [Compound 37, (S)-4-(6-(cyclopropyl(methyl)amino)nicotinoyl)-3-propyl-3,4-dihydroquinoxalin-2(1H)-one]
21 | 1.58 µM | CCC[C@H]1C(=O)Nc2ccccc2N1C(=O)c1ccc(N2CC(F)C2)nc1 [Compound 38, (S)-4-(6-(3-fluoroazetidin-1-yl)nicotinoyl)-3-propyl-3,4-dihydroquinoxalin-2(1H)-one]

The next lines start with the compound.

Row | Compound | AC1.4
22 | CCCC1C(=O)Nc2ccccc2N1C(=O)c1ccc(Cl)nc1 (stereo not shown) [Compound 1, 4-(6-chloronicotinoyl)-3-propyl-3,4-dihydroquinoxalin-2(1H)-one] | 0.45 µM
23 | CCC[C@H]1C(=O)Nc2ccc(Cl)cc2N1C(=O)c1ccc(Cl)nc1 [Compound 2, (S)-6-chloro-4-(6-chloronicotinoyl)-3-propyl-3,4-dihydroquinoxalin-2(1H)-one] | 0.71 µM
24 | CCC[C@H]1C(=O)Nc2ccccc2N1C(=O)c1ccc(C)nc1 [Compound 3, (S)-4-(6-methylnicotinoyl)-3-propyl-3,4-dihydroquinoxalin-2(1H)-one] | 0.77 µM
25 | CCC[C@H]1C(=O)Nc2cccc(Br)c2N1C(=O)c1ccc(Cl)nc1 [Compound 4, (S)-5-bromo-4-(6-chloronicotinoyl)-3-propyl-3,4-dihydroquinoxalin-2(1H)-one] | 0.72 µM
26 | CCC[C@H]1C(=O)Nc2ccccc2N1C(=O)c1ccc(Cl)nc1 [Compound 5, (S)-4-(6-chloronicotinoyl)-3-propyl-3,4-dihydroquinoxalin-2(1H)-one] | 0.38 µM
27 | CCC[C@H]1C(=O)Nc2ccccc2N1C(=O)c1ccc(F)nc1 [Compound 6, (S)-4-(6-fluoronicotinoyl)-3-propyl-3,4-dihydroquinoxalin-2(1H)-one] | 2.19 µM
28 | CCC[C@H]1C(=O)Nc2cccc(C3CC3)c2N1C(=O)c1ccc(C)nc1 [Compound 7, (S)-5-Cyclopropyl-4-(6-methylnicotinoyl)-3-propyl-3,4-dihydroquinoxalin-2(1H)-one] | 0.96 µM
29 | CCC[C@H]1C(=O)Nc2ccccc2N1C(=O)Nc1ccc(C)nc1 [Compound 8, (S)-N-(6-methylpyridin-3-yl)-3-oxo-2-propyl-3,4-dihydroquinoxaline-1(2H)-carboxamide] | 2.73 µM
30 | CCC[C@H]1C(=O)Nc2ccccc2N1C(=O)c1ccc[nH]1 [Compound 9, (S)-3-propyl-4-(1H-pyrrole-2-carbonyl)-3,4-dihydroquinoxalin-2(1H)-one] | 0.74 µM
31 | CCC[C@H]1C(=O)Nc2ccccc2N1C(=O)c1ccccc1 [Compound 10, (S)-4-benzoyl-3-propyl-3,4-dihydroquinoxalin-2(1H)-one] | 0.33 µM
32 | CCC[C@H]1C(=O)Nc2ccccc2N1C(=O)c1ccncc1 [Compound 11, (S)-4-isonicotinoyl-3-propyl-3,4-dihydroquinoxalin-2(1H)-one] | 0.97 µM
33 | CCC[C@H]1C(=O)Nc2ccccc2N1C(=O)c1cccnc1 [Compound 12, (S)-4-nicotinoyl-3-propyl-3,4-dihydroquinoxalin-2(1H)-one] | 1.55 µM
34 | CCC[C@H]1C(=O)Nc2ccccc2N1C(=O)c1conc1C [Compound 14, (S)-4-(3-methylisoxazole-4-carbonyl)-3-propyl-3,4-dihydroquinoxalin-2(1H)-one] | 1.66 µM
35 | CCC[C@H]1C(=O)Nc2ccccc2N1C(=O)c1cccs1 [Compound 15, (S)-3-propyl-4-(thiophene-2-carbonyl)-3,4-dihydroquinoxalin-2(1H)-one] | 0.17 µM
36 | CCC[C@H]1C(=O)Nc2ccccc2N1C(=O)c1cncc(C)c1 [Compound 16, (S)-4-(5-methylnicotinoyl)-3-propyl-3,4-dihydroquinoxalin-2(1H)-one] | 1.41 µM
37 | CCC[C@H]1C(=O)Nc2ccccc2N1C(=O)c1cccc(F)c1 [Compound 17, (S)-4-(3-fluorobenzoyl)-3-propyl-3,4-dihydroquinoxalin-2(1H)-one] | 0.17 µM
